This note sets out measurements from patent US4698327A, “Novel glycopeptide derivatives” (priority 1986, dated 1987).

Values after ≈ are worked out from the molar mass of the structure shown.

In experiment [1] the test system is Staphylococcus aureus V41. The experiment can be described thus: MIC, standard agar-dilution assay. In kind it is cell-based.
Experiment [2] deals with Staphylococcus aureus X400. The experiment can be described thus: MIC, standard agar-dilution assay. The class given is cell-based.
Experiment [3] concerns Staphylococcus aureus S13E. The class given is cell-based. The settings on record: agar dilution. On the technique in general: In agar dilution the substance is mixed into plates at graded concentrations.
In experiment [4] the test system is Staphylococcus epidermidis EPI1. In kind it is cell-based. The settings on record: agar dilution.
The subject of experiment [5] is Streptococcus pyogenes C203. In words: MIC, standard agar-dilution assay. In kind it is cell-based.
The subject of experiment [6] is Streptococcus pneumoniae Park 1. The class given is cell-based. The settings on record: agar dilution.
The subject of experiment [7] is Streptococcus faecium ATCC 9790. In words: MIC, standard agar-dilution assay. In kind it is cell-based.
The test system of experiment [8] is Streptococcus sp. group D 2041. The experiment can be described thus: MIC, standard agar-dilution assay. The class given is cell-based.
The subject of experiment [9] is Haemophilus influenzae C.L. The experiment can be described thus: MIC, standard agar-dilution assay. In kind it is cell-based.
For experiment [10], the system named is Haemophilus influenzae 76. In words: MIC, standard agar-dilution assay. In kind it is cell-based.
In the next experiment the test system is Escherichia coli N10. The experiment can be described thus: MIC, standard agar-dilution assay. In kind it is cell-based.
Another experiment relates to Escherichia coli EC14. In words: MIC, standard agar-dilution assay. The class given is cell-based.
A further experiment has as its system Escherichia coli TEM. In words: MIC, standard agar-dilution assay. The class given is cell-based.
Experiment [11] has as its system Klebsiella pneumoniae X26. The experiment can be described thus: MIC, standard agar-dilution assay. In kind it is cell-based.
Experiment [12] concerns Klebsiella pneumoniae X68. The experiment can be described thus: MIC, standard agar-dilution assay. In kind it is cell-based.
Experiment [13] deals with Klebsiella pneumoniae KAE. In words: MIC, standard agar-dilution assay. The class given is cell-based.
The test system of experiment [14] is Staphylococcus aureus NRRL B313. The settings on record: agar dilution.
A further experiment has as its system Staphylococcus aureus. The settings on record: Staphylococcus aureus infection in mice; two doses, administered subcutaneously.
A further experiment deals with Streptococcus pyogenes. The settings on record: Streptococcus pyogenes infection in mice; two doses, administered subcutaneously.
The test system of a further experiment is Streptococcus pneumoniae. The settings on record: Streptococcus pneumoniae infection in mice; two doses, administered subcutaneously.
Experiment [15] concerns Staphylococcus epidermidis 222. In words: MIC, standard agar-dilution assay. In kind it is cell-based.

In the case of `CCCCCCCCCCCCNC1(C)CC(OC2C(Oc3c4cc5cc3Oc3ccc(cc3Cl)C(O)C3NC(=O)C(NC(=O)C5NC(=O)C(CC(N)=O)NC(=O)C(NC(=O)C(CC(C)C)NC)C(O)c5ccc(c(Cl)c5)O4)c4ccc(O)c(c4)-c4c(O)cc(O)cc4C(C(=O)O)NC3=O)OC(CO)C(O)C2O)OC(C)C1O` (stereo not drawn) [Compound 1, N^van --(n-dodecyl)vancomycin], the MIC in experiment [1] amounted to 0.25 µg/mL (≈ 0.155 µM); in [2], 0.25 µg/mL (≈ 0.155 µM); in experiment [3], 0.25 µg/mL (≈ 0.155 µM); in [4], 0.5 µg/mL (≈ 0.309 µM); in [5], 0.125 µg/mL (≈ 0.0773 µM); in experiment [6], 0.25 µg/mL (≈ 0.155 µM). In addition, the MIC in [7] was 0.25 µg/mL (≈ 0.155 µM); in experiment [8], 0.125 µg/mL (≈ 0.0773 µM); in experiment [9], more than 128 µg/mL; in experiment [10], more than 128 µg/mL; against Escherichia coli N10 it was more than 128 µg/mL; with Escherichia coli EC14, more than 128 µg/mL. The MIC was more than 128 µg/mL against Escherichia coli TEM; more than 128 µg/mL in experiment [11]; more than 128 µg/mL in [12]; more than 128 µg/mL in experiment [13]; 0.25 µg/mL (≈ 0.155 µM) in experiment [14]. In addition, the ED50 in the experiment with Staphylococcus aureus was more than 5 mg/kg/2; in the experiment on Streptococcus pyogenes, 0.31 mg/kg/2; in the experiment on Streptococcus pneumoniae it was 0.42 mg/kg/2.

For `CCCCCCCCCCNC1(C)CC(OC2C(Oc3c4cc5cc3Oc3ccc(cc3Cl)C(O)C3NC(=O)C(NC(=O)C5NC(=O)C(CC(N)=O)NC(=O)C(NC(=O)C(CC(C)C)NC)C(O)c5ccc(c(Cl)c5)O4)c4ccc(O)c(c4)-c4c(O)cc(O)cc4C(C(=O)O)NC3=O)OC(CO)C(O)C2O)OC(C)C1O` (stereo not drawn) [Compound 2, N^van -(n-decyl)vancomycin], the MIC in [1] is 0.25 µg/mL (≈ 0.157 µM); in experiment [2] it was 0.25 µg/mL (≈ 0.157 µM); in [3] it was 0.25 µg/mL (≈ 0.157 µM); in experiment [4], 0.25 µg/mL (≈ 0.157 µM); in experiment [15], 0.25 µg/mL (≈ 0.157 µM); in [5], 0.06 µg/mL (≈ 0.0377 µM). Besides, the MIC is 0.125 µg/mL (≈ 0.0786 µM) in [6]; 0.25 µg/mL (≈ 0.157 µM) in experiment [7]; 0.25 µg/mL (≈ 0.157 µM) in [8]; 128 µg/mL (≈ 80.5 µM) in experiment [9]; 128 µg/mL (≈ 80.5 µM) in experiment [10]; more than 128 µg/mL in the experiment with Escherichia coli N10. Moreover, the MIC (with Escherichia coli EC14; in the experiment with Escherichia coli TEM; in experiment [11]; in experiment [12]; in [13]) was more than 128 µg/mL in each case. Also, the ED50 was found to be 1.8 mg/kg/2 with Staphylococcus aureus, 1.6 mg/kg/2 in the experiment with Streptococcus pyogenes and 0.51 mg/kg/2 in the experiment on Streptococcus pneumoniae.

For the molecule `CCCCCCCCCCN(C)C(CC(C)C)C(=O)NC1C(=O)NC(CC(N)=O)C(=O)NC2C(=O)NC3C(=O)NC(C(=O)NC(C(=O)O)c4cc(O)cc(O)c4-c4cc3ccc4O)C(O)c3ccc(c(Cl)c3)Oc3cc2cc(c3OC2OC(CO)C(O)C(O)C2OC2CC(C)(N)C(O)C(C)O2)Oc2ccc(cc2Cl)C1O` (stereo not drawn) [Compound 3, N^leu --(n-decyl)vancomycin], the MIC in experiment [1] was 0.5 µg/mL (≈ 0.315 µM); in experiment [2], 0.5 µg/mL (≈ 0.315 µM); in [3], 0.5 µg/mL (≈ 0.315 µM); in experiment [4] it was 2 µg/mL (≈ 1.26 µM); in experiment [15] it was 1 µg/mL (≈ 0.629 µM); in [5] it was 0.5 µg/mL (≈ 0.315 µM). Also, the MIC was 0.5 µg/mL (≈ 0.315 µM) in [6]; 0.5 µg/mL (≈ 0.315 µM) in [7]; 1 µg/mL (≈ 0.629 µM) in [8]; 128 µg/mL (≈ 80.5 µM) in [9]; more than 128 µg/mL in [10]; more than 128 µg/mL with Escherichia coli N10. Further, the MIC against Escherichia coli EC14 was more than 128 µg/mL; with Escherichia coli TEM, more than 128 µg/mL; in [11], more than 128 µg/mL; in experiment [12], more than 128 µg/mL; in experiment [13] it was more than 128 µg/mL; in experiment [14] it was 0.5 µg/mL (≈ 0.315 µM). Besides, the ED50 in the experiment with Staphylococcus aureus is listed as more than 5 mg/kg/2; with Streptococcus pyogenes, 4.6 mg/kg/2; in the experiment with Streptococcus pneumoniae, 3.6 mg/kg/2.

Turning to `CCCCCCCCCNC1(C)CC(OC2C(Oc3c4cc5cc3Oc3ccc(cc3Cl)C(O)C3NC(=O)C(NC(=O)C5NC(=O)C(CC(N)=O)NC(=O)C(NC(=O)C(CC(C)C)NC)C(O)c5ccc(c(Cl)c5)O4)c4ccc(O)c(c4)-c4c(O)cc(O)cc4C(C(=O)O)NC3=O)OC(CO)C(O)C2O)OC(C)C1O` (stereo not drawn) [Compound 5, N^van --(n-nonyl)vancomycin], the MIC in experiment [1] amounted to 0.25 µg/mL (≈ 0.159 µM); in experiment [2], 0.25 µg/mL (≈ 0.159 µM); in experiment [3], 0.25 µg/mL (≈ 0.159 µM); in experiment [4], 0.5 µg/mL (≈ 0.317 µM); in experiment [15], 0.25 µg/mL (≈ 0.159 µM); in experiment [5], 0.125 µg/mL (≈ 0.0793 µM). Further, the MIC in experiment [6] is 0.25 µg/mL (≈ 0.159 µM); in experiment [7] it was 0.25 µg/mL (≈ 0.159 µM); in experiment [8], 0.5 µg/mL (≈ 0.317 µM); in experiment [9] it was 64 µg/mL (≈ 40.6 µM); in [10], 64 µg/mL (≈ 40.6 µM); with Escherichia coli N10, more than 128 µg/mL. In addition, the MIC was more than 128 µg/mL with Escherichia coli EC14; more than 128 µg/mL in the experiment on Escherichia coli TEM; more than 128 µg/mL in [11]; more than 128 µg/mL in [12]; more than 128 µg/mL in experiment [13]; 0.25 µg/mL (≈ 0.159 µM) in experiment [14]. The ED50 with Staphylococcus aureus was determined as 2.9 mg/kg/2; in the experiment on Streptococcus pyogenes, 0.56 mg/kg/2; with Streptococcus pneumoniae, 0.81 mg/kg/2.

For the molecule `CCCCCCCCNC1(C)CC(OC2C(Oc3c4cc5cc3Oc3ccc(cc3Cl)C(O)C3NC(=O)C(NC(=O)C5NC(=O)C(CC(N)=O)NC(=O)C(NC(=O)C(CC(C)C)NC)C(O)c5ccc(c(Cl)c5)O4)c4ccc(O)c(c4)-c4c(O)cc(O)cc4C(C(=O)O)NC3=O)OC(CO)C(O)C2O)OC(C)C1O` (stereo not drawn) [Compound 7, N^van --(n-octyl)vancomycin], the MIC came to 0.25 µg/mL (≈ 0.16 µM) in [1]; 0.25 µg/mL (≈ 0.16 µM) in [2]; 0.25 µg/mL (≈ 0.16 µM) in experiment [3]; 1 µg/mL (≈ 0.64 µM) in experiment [4]; 0.5 µg/mL (≈ 0.32 µM) in experiment [15]; 0.125 µg/mL (≈ 0.0801 µM) in experiment [5]. Further, the MIC was 0.25 µg/mL (≈ 0.16 µM) in experiment [7]; 0.5 µg/mL (≈ 0.32 µM) in experiment [8]; 32 µg/mL (≈ 20.5 µM) in experiment [9]; 32 µg/mL (≈ 20.5 µM) in experiment [10]; more than 128 µg/mL in the experiment on Escherichia coli N10; more than 128 µg/mL against Escherichia coli EC14. Also, the MIC against Escherichia coli TEM is more than 128 µg/mL; in experiment [11], more than 128 µg/mL; in experiment [12] it was more than 128 µg/mL; in experiment [13], more than 128 µg/mL; in experiment [14] it was 0.25 µg/mL (≈ 0.16 µM). Further, the values for the ED50 in the experiment with Staphylococcus aureus, in the experiment with Streptococcus pyogenes and with Streptococcus pneumoniae were 3.4 mg/kg/2, 0.98 mg/kg/2 and 0.44 mg/kg/2, respectively.

For `CCCCCCCCN(C)C(CC(C)C)C(=O)NC1C(=O)NC(CC(N)=O)C(=O)NC2C(=O)NC3C(=O)NC(C(=O)NC(C(=O)O)c4cc(O)cc(O)c4-c4cc3ccc4O)C(O)c3ccc(c(Cl)c3)Oc3cc2cc(c3OC2OC(CO)C(O)C(O)C2OC2CC(C)(N)C(O)C(C)O2)Oc2ccc(cc2Cl)C1O` (stereo not drawn) [Compound 8, N^leu --(n-octyl)vancomycin], the MIC is 0.5 µg/mL (≈ 0.32 µM) in experiment [1]; 1 µg/mL (≈ 0.64 µM) in experiment [2]; 1 µg/mL (≈ 0.64 µM) in experiment [3]; 2 µg/mL (≈ 1.28 µM) in experiment [4]; 1 µg/mL (≈ 0.64 µM) in [15]; 0.5 µg/mL (≈ 0.32 µM) in [5]. The MIC was 1 µg/mL (≈ 0.64 µM) in experiment [6]; 1 µg/mL (≈ 0.64 µM) in experiment [7]; 2 µg/mL (≈ 1.28 µM) in [8]; 128 µg/mL (≈ 82 µM) in experiment [9]; 128 µg/mL (≈ 82 µM) in experiment [10]; more than 128 µg/mL in the experiment on Escherichia coli N10. For the same molecule, the MIC against Escherichia coli EC14 is more than 128 µg/mL; with Escherichia coli TEM it was more than 128 µg/mL; in experiment [11], more than 128 µg/mL; in experiment [12], more than 128 µg/mL; in experiment [13], more than 128 µg/mL; in experiment [14] it was 0.5 µg/mL (≈ 0.32 µM). For the same molecule, the ED50 in the experiment on Staphylococcus aureus is given as more than 5 mg/kg/2; with Streptococcus pyogenes it was 3.7 mg/kg/2; in the experiment on Streptococcus pneumoniae it was 3.1 mg/kg/2.
